From patent publication US8642510B2, “Inhibitors for brassinosteroid signalling” (GMI-Gregor Mendel-Institut fuer Molekulare Pflanzenbiologie …, priority 2008, dated 2014)
“Also recorded” adds a separate entry of the source.

How the values were obtained:
[1] = Determination of pKa values; details: for pKa: 50% (v/v) methanol
Protocol: Fifty to 100 mg compound were weighed and dissolved in 50 ml 50% (v/v) methanol. A titration curve with 50 mM NaOH as standard solution was recorded with a Greisinger electonics GPHR 1400A pH meter. The equivalence point was determined by the difference quotient method (ΔpH/ΔVNaOH) and the pKa read from the titration curve at 50% neutralisation.

cpd mutant seedlings = details: background statement; cited from earlier work
bri1-1 mutant seedlings = details: background statement; cited from earlier work
ASKθ = target: T1, ASKθ (Arabidopsis thaliana, UniProt Q96287); details: prior knowledge; cited from earlier work
T1 construct: made in house; host or cells: E. coli BL21
T1 sequence (Q96287 1-472): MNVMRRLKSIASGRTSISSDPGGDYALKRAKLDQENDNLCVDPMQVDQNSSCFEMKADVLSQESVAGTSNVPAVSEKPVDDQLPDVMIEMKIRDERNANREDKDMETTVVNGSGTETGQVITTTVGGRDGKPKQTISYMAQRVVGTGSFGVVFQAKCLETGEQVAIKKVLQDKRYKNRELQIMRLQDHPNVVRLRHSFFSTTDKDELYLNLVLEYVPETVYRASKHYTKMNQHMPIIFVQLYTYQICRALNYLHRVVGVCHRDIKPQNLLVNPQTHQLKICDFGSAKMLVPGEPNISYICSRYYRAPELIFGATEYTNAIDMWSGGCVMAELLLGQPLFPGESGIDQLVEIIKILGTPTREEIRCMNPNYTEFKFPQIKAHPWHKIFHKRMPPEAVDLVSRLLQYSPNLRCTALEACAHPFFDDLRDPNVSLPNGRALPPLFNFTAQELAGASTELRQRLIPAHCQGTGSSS

[2] = tested on: ASKs (A. thaliana GSK-3/Shaggy-like kinases); test: In vitro kinase assay, GST-ASK fusion proteins with MBP and γ-[32P]-ATP; type: biochemical, Arabidopsis thaliana; details: compounds at 10 μM, result in words
Protocol: GST-ASK fusion proteins were incubated with MBP as substrate and γ-[32P]-ATP as co-substrate in the absence (−) or presence of different derivatives (the numbers correspond to Table 1). […] The compounds were used at a concentration of 10 μM. The proteins were separated by SDS-PAGE and the incorporated radioactive phosphate detected with a storage phosphor imager screen.
(§1) ASKs were expressed as GST-fusion proteins in E. coli BL21. In vitro kinase assays were performed by incubating 50 ng GST-fusion protein, 10 μg myelin basic protein (MBP; Sigma, St Louis, Mo.) as substrate and 0.15 MBq γ-[32P]-ATP as co-substrate at 25° C. for 30 min. The reaction buffer consisted of 20 mM HEPES pH7.4, 15 mM MgCl2, 5 mM EGTA and 1 mM DTT. For initial experiments cold ATP was included at concentrations up to 3 μM. The reaction products were separated by SDS-PAGE and the amount of radioactivity incorporated into MBP quantified using an Amersham storage phosphor imager screen and a Biorad Molecular Imager FX. In vivo kinase activity was detected by phosphorylation band-shift assays using BZR1-CFP as substrate.
Representatives of all groups were expressed as recombinant GST fusion proteins in E. coli.

ASKβ = target: T2, ASKβ (Arabidopsis thaliana, UniProt O23145); details: prior knowledge; cited from earlier work
T2 construct: made in house; host or cells: E. coli BL21
T2 sequence (O23145 1-431): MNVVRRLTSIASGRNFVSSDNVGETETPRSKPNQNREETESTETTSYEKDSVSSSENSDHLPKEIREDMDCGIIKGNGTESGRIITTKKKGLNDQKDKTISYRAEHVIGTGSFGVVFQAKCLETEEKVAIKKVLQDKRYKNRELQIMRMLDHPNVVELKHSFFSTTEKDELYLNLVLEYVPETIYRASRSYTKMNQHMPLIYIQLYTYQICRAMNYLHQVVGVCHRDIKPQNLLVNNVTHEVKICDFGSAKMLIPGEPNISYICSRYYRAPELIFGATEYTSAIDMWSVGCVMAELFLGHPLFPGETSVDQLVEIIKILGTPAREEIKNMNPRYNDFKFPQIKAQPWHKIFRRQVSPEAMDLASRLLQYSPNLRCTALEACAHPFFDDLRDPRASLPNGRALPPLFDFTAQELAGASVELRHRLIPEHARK

ASKδ = target: T3, ASKδ (Arabidopsis thaliana, UniProt Q9FVS6); details: prior knowledge; listed as 4-[(5-bromo-2-pyridinyl)amino]-4-oxobutanoic acid; cited from earlier work
T3 construct: made in house; host or cells: E. coli BL21
T3 sequence (Q9FVS6 1-420): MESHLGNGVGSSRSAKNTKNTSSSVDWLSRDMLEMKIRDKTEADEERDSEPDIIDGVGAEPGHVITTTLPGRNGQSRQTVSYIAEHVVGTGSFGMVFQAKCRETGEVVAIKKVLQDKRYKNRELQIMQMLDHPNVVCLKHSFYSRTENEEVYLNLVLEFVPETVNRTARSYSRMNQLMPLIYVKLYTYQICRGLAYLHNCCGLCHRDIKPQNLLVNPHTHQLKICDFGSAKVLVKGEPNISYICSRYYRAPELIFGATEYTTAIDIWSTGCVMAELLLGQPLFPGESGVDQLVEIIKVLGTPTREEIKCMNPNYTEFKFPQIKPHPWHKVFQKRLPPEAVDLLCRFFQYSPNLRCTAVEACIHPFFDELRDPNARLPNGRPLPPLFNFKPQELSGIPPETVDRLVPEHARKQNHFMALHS

[3] = tested on: group I and group II ASKs; details: group I: ASKα, ASKγ, ASKε; group II: BIN2, ASKζ, ASKι; prior knowledge; listed as 4-[(5-bromo-2-pyridinyl)amino]-4-oxobutanoic acid; cited from earlier work
BIN2 = target: T4, BIN2 (Arabidopsis thaliana, UniProt Q39011); test: In vitro kinase assay, GST-BIN2; type: biochemical; details: compounds at 10 μM; result in words
T4 construct: made in house; host or cells: E. coli BL21
T4 sequence (Q39011 1-380): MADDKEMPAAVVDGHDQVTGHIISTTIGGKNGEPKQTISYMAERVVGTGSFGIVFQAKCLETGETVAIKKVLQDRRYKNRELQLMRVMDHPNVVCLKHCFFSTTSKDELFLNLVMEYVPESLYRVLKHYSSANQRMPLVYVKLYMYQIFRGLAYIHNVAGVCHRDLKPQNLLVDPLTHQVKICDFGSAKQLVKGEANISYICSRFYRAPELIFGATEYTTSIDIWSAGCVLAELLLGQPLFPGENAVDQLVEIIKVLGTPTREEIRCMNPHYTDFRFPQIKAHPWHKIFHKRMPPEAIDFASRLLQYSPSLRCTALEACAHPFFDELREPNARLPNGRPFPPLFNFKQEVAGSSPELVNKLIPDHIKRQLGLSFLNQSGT
Protocol: GST-BIN2 was incubated with MBP and γ-[32P]-ATP in the absence or presence of compounds 3, 14 and 15 at a concentration of 10 μM. The proteins were separated by SDS-PAGE and phosphorylation of MBP was quantified with a phospho imager screen. The residual activity is expressed in % of the control. The means and standard deviations were calculated from 4 independent assays.
as §1
The second kinase of this class, ASKβ, and the group IV kinase ASKδ are not inhibited. Representatives of all groups were expressed as recombinant GST fusion proteins in E. coli. […]

ASKζ = target: T5, ASKζ (Arabidopsis thaliana, UniProt Q39010); test: In vivo kinase assay, BZR1-CFP phosphorylation band-shift in protoplasts; type: cell-based, A. thaliana; details: protoplasts co-transformed with BZR1-CFP and Myc-tagged ASK; increasing concentrations
T5 construct: expressed in transfected cells; host or cells: A. thaliana protoplasts
T5 sequence (Q39010 1-412): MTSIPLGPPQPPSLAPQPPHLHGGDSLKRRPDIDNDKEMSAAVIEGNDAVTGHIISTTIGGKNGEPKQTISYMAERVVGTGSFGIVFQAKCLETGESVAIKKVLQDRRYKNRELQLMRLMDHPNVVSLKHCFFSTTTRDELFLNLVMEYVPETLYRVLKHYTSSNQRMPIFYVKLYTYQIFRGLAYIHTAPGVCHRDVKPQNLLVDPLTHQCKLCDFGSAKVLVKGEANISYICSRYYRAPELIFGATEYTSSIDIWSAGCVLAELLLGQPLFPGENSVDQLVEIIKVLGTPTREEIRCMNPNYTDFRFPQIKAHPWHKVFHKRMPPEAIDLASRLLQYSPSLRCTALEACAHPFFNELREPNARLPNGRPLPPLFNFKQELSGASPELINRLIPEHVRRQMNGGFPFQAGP
Description: A. thaliana protoplasts were co-transformed with expression constructs of BZR1-CFP and Myc-tagged ASKζ and treated with increasing concentrations of compounds 10 and 15. […] and ASKζ-Myc were detected by western blot analysis using polyclonal anti-GFP and monoclonal anti-Myc antibodies, respectively. A Coomassie R250 stain is shown as a loading control. Depending on the ASKζ kinase activity BZR1-CFP can be observed in a phosphorylated or unphosphorylated form (indicated by arrows). The ratio of the two ASKζ-Myc bands, indicating posttranslational modification of this protein, were not affected by inhibitor application.
ASKs were expressed as GST-fusion proteins in E. coli BL21. […] The reaction products were separated by SDS-PAGE and the amount of radioactivity incorporated into MBP quantified using an Amersham storage phosphor imager screen and a Biorad Molecular Imager FX. In vivo kinase activity was detected by phosphorylation band-shift assays using BZR1-CFP as substrate.
Because of this unexpected result, the effect of the inhibitions on the in vivo ASK activity was analysed by a direct method. […] Transformed protoplasts were incubated with different concentrations of compounds 10 and 15 and BZR1-CFP and […] and subsequently analysed by western blotting.

| SMILES | pKa [1] | Rescue of cpd mutant (cpd mutant seedlings) | Rescue of bri1-1 mutant (bri1-1 mutant seedlings) | Inhibition of ASKθ (group III) (ASKθ) | Inhibition of ASKs in vitro (MBP phosphorylation) [2] | Inhibition of ASKβ (group III) (ASKβ) | Inhibition of ASKδ (group IV) (ASKδ) | Inhibition of group I and group II ASKs [3] | Portion undissociated ([1]; intracellular pH of 7.4) | Portion undissociated / lipophilic, capable of diffusion through the membrane ([1]; pH5.8, the pH of the medium) [%] | Inhibition of BIN2 in vitro (residual kinase activity) (BIN2) | Inhibition of ASKs in vitro (MBP phosphorylation) ([2]; listed as iodo derivative) | Inhibition of in vivo ASK activity (BZR1-CFP phosphorylation shift) (ASKζ) |
| --- | --- | --- | --- | --- | --- | --- | --- | --- | --- | --- | --- | --- | --- |
| O=C(O)CCC(=O)Nc1ccc(Br)cn1 [Compound 14, 4-[(5-bromopyrid-2-yl)amino]-4-oxobutanoic acid] | 5.6 | rescues both mutants | rescues both mutants | moderately inhibited | highly active | not inhibited | not inhibited; also recorded: insensitive | potent inhibitor; also recorded: most sensitive |  |  |  |  |  |
| O=C(O)CCC(=O)Nc1ccc(I)cn1 [Compound 15, 4-[(5-iodopyrid-2-yl)amino]-4-oxobutanoic acid] | 5.8 |  |  |  | highest activity; also recorded: most potent compound in vitro |  |  |  | less than 3% | 50 | highest potency | highly active | potent inhibitors in vivo; also recorded: highly active; also recorded: high inhibitory activity in vivo |
| CC(C)[C@@H](C)[C@@H](O)[C@H](O)[C@@H](C)[C@H]1CC[C@H]2[C@@H]3COC(=O)[C@H]4C[C@H](O)[C@H](O)C[C@]4(C)[C@H]3CC[C@]12C [epi-brassinolide] |  | rescues cpd | not bril-1 |  |  |  |  |  |  |  |  |  |  |
